Reference: patent US5182386A (priority 1991, dated 1993)

How the values were obtained:
GABAa receptor = GABAa receptor (benzodiazepine site) binding, displacement of 3H-RO15-1788 [3H-Flumazenil]; conditions: rat cortical tissue; 0.5 nM 3H-RO15-1788; 30 min at 4° C.
Method: Assays are carried out as described in Thomas and Tallman (J. Bio. Chem. 156: 9838-9842, J. Neurosci. 3:433-440, 1983). Rat cortical tissue is dissected and homogenized in 25 volumes (w/v) of 0.05M Tris HCl buffer (pH 7.4 at 4° C.). The tissue homogenate is centrifuged in the cold (4° ) at 20,000×g for 20'. The supernatant is decanted and the pellet is rehomogenized in the same volume of buffer and again centrifuged at 20,000×g. The supernatant is decanted and the pellet is frozen at -20° C. overnight. The pellet is then thawed and rehomogenized in 25 volume (original wt/vol) of buffer and the procedure is carried out twice. The pellet is finally resuspended in 50 volumes (w/vol of 0.05M Tris HCl buffer (pH 7.4 at […]).
Incubations contain […] of tissue homogenate, […] of radioligand 0.5 nM (^3 H-RO15-1788 [^3 H-Flumazenil] specific activity 80 Ci/mmol), drug or blocker and buffer to a total volume of […]. Incubations are carried for 30 min at 4° C. then are rapidly filtered through GFB filters to separate free and bound ligand. Filters are washed twice with fresh 0.05M Tris HCl buffer (pH 7.4 at 4° C. ) and counted in a liquid scintillation counter. […] diazepam is added to some tubes to determine nonspecific binding. Data are collected in triplicate determinations, averaged and % inhibition of total specific binding is calculated. Total Specific Binding=Total-Nonspecific. In some cases, the amounts of unlabeled drugs is varied and total displacement curves of binding are carried out. Data are converted to a form for the calculation of IC50 and Hill Coefficient (nH).

GABA receptor = conditions: Tallman et al., 1978; cited from earlier work

Row | IC50 (GABAa receptor) [nM] | SMILES | block of enhancement of benzodiazepine binding by GABA agonists (GABA receptor)
1 | 33 | COc1ccc(-c2nc3c[nH]c4ccccc4n-3c2=O)cc1 [Compound 1, 2-(4-methoxyphenyl)-imidazo-[1,2-a]-quinoxalin-1(5H)-one] | –
2 | – | CN1CCc2cc3c(cc2C1C1OC(=O)c2c1ccc1c2OCO1)OCO3 (single isomer, unassigned; (-)) [(-) bicuculline] | much less active
3 | – | CN1CCc2cc3c(cc2C1C1OC(=O)c2c1ccc1c2OCO1)OCO3 (single isomer, unassigned; (+)) [(+) bicuculline] | blocked
4 | 70 | COc1cccc(-c2nc3c[nH]c4ccccc4n-3c2=O)c1 [Compound 3, 2-(3-Methoxyphenyl)-imidazo-[1,2-a]-quinoxalin-1(5H)-one] | –

Row | SMILES | IC50 (GABAa receptor) [nM] | block of enhancement of benzodiazepine binding by GABA agonists (GABA receptor)
5 | O=c1c(-c2ccccc2)nc2c[nH]c3ccccc3n1-2 [Compound 2, 2-Phenyl-imidazo-[1,2-a]-quinoxalin-1(5H)-one] | 33 | –
